The numbers were not newly measured in patent publication US7605257B2, “Processes for preparing water-soluble polyethylene glycol conjugates of macrolide immunosuppressants” (Wyeth, priority 2006, dated 2009), which cites them from elsewhere.

This data set deals with various solid tumors. The conditions noted are these: typical IC50, inhibitor of tumor growth; read-out: IC50 against various solid tumors.

By IC50 is commonly meant the concentration needed to halve the response being measured. `CO[C@H]1C[C@@H]2CC[C@@H](C)[C@@](O)(O2)C(=O)C(=O)N2CCCC[C@H]2C(=O)O[C@H]([C@H](C)C[C@@H]2CC[C@@H](O)[C@H](OC)C2)CC(=O)[C@H](C)/C=C(\C)[C@@H](O)[C@@H](OC)C(=O)[C@H](C)C[C@H](C)/C=C/C=C/C=C/1C` [Rapamycin, rapamycin]: the IC50 is less than 50 nM.
